# Literature values, collected in patent US9517201B2, “Nanocarrier and nanogel compositions” (RUTGERS, THE STATE UNIVERSITY OF NEW JERSEY, priority 2008, dated 2016).
# Structures can show the parent of a compound that is named as a salt.
compound,measurement,value
"COc1cccc2c1C(=O)c1c(O)c3c(c(O)c1C2=O)C[C@@](O)(C(=O)CO)C[C@@H]3O[C@H]1C[C@H](N)[C@H](O)[C@H](C)O1 [Doxorubicin Hydrochloride, Doxorubicin hydrochloride]",solubility of Doxorubicin Hydrochloride in water,~10 mg/mL
